Reference: patent US20160228388A1, “METHODS OF ADMINISTERING AMANTADINE COMPOSITIONS” (Adamas Pharmaceuticals, Inc., priority 2014, published 2016)
Structures can show the parent of a compound that is named as a salt.

Tests used:
Parkinson's patients = conditions: cited from earlier work
[1] = system: MOG35-55 induced experimental autoimmune encephalomyelitis (EAE) in C57BL/6 mice; experiment: Example 9: kinematic gait analysis / MotoRater walk test in EAE mice; assay type: in vivo; conditions: for % of animals able to complete the walking test: day 16, EAE mice, untreated EAE control 40%, FIG. 9
Experimental: The captured videos of each mouse were first converted to SimiMotion software to track the marked points of body (e.g., paws, hips, tail, etc.), and the movement of these different body points in relation to the ground were recorded in coordinates. Different gait patterns and fine motor movements were analyzed using a custom made automated analysis system. Kinematic endpoints are described in Table 13. [table] Kinematic parameters (Table 13) were graphed as individual values in a scatter graph and/or as mean (±SEM) in a bar graph.

[2] = system: multiple sclerosis patients; conditions: Goodman et al. 2009; cited from earlier work
[3] = system: MOG35-55 induced experimental autoimmune encephalomyelitis (EAE) in C57BL/6 mice; experiment: Example 9: clinical scoring of EAE in a mouse model of multiple sclerosis; assay type: in vivo; conditions: for onset of disease / clinical scores: AMT 60 mg/kg/day or DAL 4 mg/kg/day by Alzet minipump; for clinical scores: vs untreated EAE mice, FIG. 6; for cumulative clinical score (Day 18-27): vs untreated control, FIG. 7
Iba-1 = experiment: Example 9: Iba-1 expression (marker of microglia activation) in EAE mice; assay type: in vivo; conditions: AMT 60 mg/kg/day, FIG. 8
[4] = dose related; Gracies and Olanow 2002; cited from earlier work

For `COC(=O)C(c1ccccc1)C1CCCCN1` (centres unmarked) [Methylphenidate], the gait impairment (Parkinson's patients; Parkinson's disease, Espay et al. 2011) is listed as “not effective” and the gait (Parkinson's patients; Parkinson's patients with severe gait disorders receiving STN stimulation, Moreau et al. 2012) is listed as “improvement in gait”.

In the case of `Nc1ccncc1` [Dalfampridine, 4-Aminopyridine], the “% of animals able to complete the walking test” value [1] is given as 50%, the walking ability [2] is given as “improvement in walking ability in some patients” and the “walking ability (velocity and stride length)” value (Parkinson's patients; Parkinson's patients, at four weeks, Luca et al. 2015) is given as “did not show an improvement”. For the same molecule, the onset of disease [3] was “Neither group treated with drug showed a delay onset of disease”, the clinical scores [3] was “lower clinical scores” and the “cumulative clinical score (Day 18-27)” value [3] was “reduced cumulative clinical scores”.

With `NC12CC3CC(CC(C3)C1)C2` [Amantadine HCl] the “60 cm Walk Time” value ([1]; Day 14, vs untreated EAE control and dalfampridine-treated group, FIG. 10A) was “lower time”, the mean walking speed ([1]; Day 14, vs untreated EAE control and dalfampridine-treated group, FIG. 10B) was “faster mean walking speed” and the “% of animals able to complete the walking test” value [1] was 60%. The Iba-1 expression (Iba-1) was “significantly lower expression”, the CNS side effects [4] was “dose related CNS side effects including dizziness, confusion, hallucinations, insomnia and nightmares” and the symptom severity ([3]; AMT 60 mg/kg/day by Alzet minipump) was “decreased symptom severity”. The onset of disease [3] was “Neither group treated with drug showed a delay onset of disease”, the clinical scores [3] was “lower clinical scores” and the “cumulative clinical score (Day 18-27)” value [3] was “reduced cumulative clinical scores”.
